PubChem BioAssay (NCI)
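48-hour exposure; five concentrations; linearly interpolated endpoints. At the GI50, growth is halved. TGI denotes the concentration required for complete inhibition of growth.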

Columns and labels:
Assay in all cases: growth of human tumour cells (NCI), 48 h
OVCAR-5 ovarian = tested on: OVCAR-5 ovarian
SW-620 colon = tested on: SW-620 colon
SNB-75 CNS = tested on: SNB-75 CNS
SK-OV-3 ovarian = tested on: SK-OV-3 ovarian
SF-295 CNS = tested on: SF-295 CNS
SK-MEL-5 melanoma = tested on: SK-MEL-5 melanoma
UACC-257 melanoma = tested on: UACC-257 melanoma
LXFL 529 NSCLC = tested on: LXFL 529 NSCLC
HCT-116 colon = tested on: HCT-116 colon
HL-60(TB) leukemia = tested on: HL-60(TB) leukemia
RPMI-8226 leukemia = tested on: RPMI-8226 leukemia
SK-MEL-28 melanoma = tested on: SK-MEL-28 melanoma
A549 NSCLC = tested on: A549 NSCLC
OVCAR-3 ovarian = tested on: OVCAR-3 ovarian
M19-MEL melanoma = tested on: M19-MEL melanoma
U251 CNS = tested on: U251 CNS
MOLT-4 leukemia = tested on: MOLT-4 leukemia
DLD-1 colon = tested on: DLD-1 colon
HCC-2998 colon = tested on: HCC-2998 colon
TK-10 renal = tested on: TK-10 renal
HOP-62 NSCLC = tested on: HOP-62 NSCLC
K-562 leukemia = tested on: K-562 leukemia
HOP-92 NSCLC = tested on: HOP-92 NSCLC
CCRF-CEM leukemia = tested on: CCRF-CEM leukemia
KM12 colon = tested on: KM12 colon
NCI-H23 lung = tested on: NCI-H23 lung
SR leukemia = tested on: SR leukemia
UACC-62 melanoma = tested on: UACC-62 melanoma
SF-268 CNS = tested on: SF-268 CNS
COLO 205 colon = tested on: COLO 205 colon
NCI-H522 lung = tested on: NCI-H522 lung
HT29 colon = tested on: HT29 colon
IGROV1 ovarian = tested on: IGROV1 ovarian
ACHN renal = tested on: ACHN renal
SF-539 CNS = tested on: SF-539 CNS
OVCAR-8 ovarian = tested on: OVCAR-8 ovarian
UO-31 renal = tested on: UO-31 renal
NCI-H460 lung = tested on: NCI-H460 lung
SNB-19 CNS = tested on: SNB-19 CNS
NCI-H226 lung = tested on: NCI-H226 lung
MALME-3M melanoma = tested on: MALME-3M melanoma
CAKI-1 renal = tested on: CAKI-1 renal
RXF 393 renal = tested on: RXF 393 renal
OVCAR-4 ovarian = tested on: OVCAR-4 ovarian
KM20L2 colon = tested on: KM20L2 colon
786-0 renal = tested on: 786-0 renal
LOX IMVI melanoma = tested on: LOX IMVI melanoma
SNB-78 CNS = tested on: SNB-78 CNS
DMS 114 small cell lung = tested on: DMS 114 small cell lung
SN12C renal = tested on: SN12C renal
HCT-15 colon = tested on: HCT-15 colon
EKVX NSCLC = tested on: EKVX NSCLC

## COc1ccc(/C=N/n2cnc3c(sc(=S)n3-c3ccccc3)c2=O)cc1
OVCAR-5 ovarian
  TGI: > 100 µM
SW-620 colon
  TGI: > 100 µM
SNB-75 CNS
  TGI: 7.87 µM
SK-OV-3 ovarian
  TGI: 58.6 µM
SF-295 CNS
  TGI: 31.5 µM
SK-MEL-5 melanoma
  TGI: > 100 µM
UACC-257 melanoma
  TGI: > 100 µM
LXFL 529 NSCLC
  TGI: 48.8 µM
HCT-116 colon
  TGI: > 100 µM
HL-60(TB) leukemia
  TGI: 37.9 µM
RPMI-8226 leukemia
  TGI: 58.8 µM
SK-MEL-28 melanoma
  TGI: 38.6 µM
A549 NSCLC
  TGI: > 100 µM
OVCAR-3 ovarian
  TGI: 38.1 µM
M19-MEL melanoma
  TGI: > 100 µM
U251 CNS
  TGI: > 100 µM
MOLT-4 leukemia
  TGI: 90.9 µM
DLD-1 colon
  TGI: > 100 µM
HCC-2998 colon
  TGI: > 100 µM
TK-10 renal
  TGI: 65.4 µM
HOP-62 NSCLC
  TGI: 37.3 µM
K-562 leukemia
  TGI: 48.8 µM
HOP-92 NSCLC
  TGI: 29.6 µM
CCRF-CEM leukemia
  TGI: 57.8 µM
KM12 colon
  TGI: > 100 µM
NCI-H23 lung
  TGI: 87.3 µM
SR leukemia
  TGI: > 100 µM
UACC-62 melanoma
  TGI: 49.8 µM
SF-268 CNS
  TGI: 38.8 µM
COLO 205 colon
  TGI: > 100 µM
NCI-H522 lung
  TGI: 30.1 µM
HT29 colon
  TGI: > 100 µM
IGROV1 ovarian
  TGI: > 100 µM
ACHN renal
  TGI: > 100 µM
SF-539 CNS
  TGI: 28.5 µM
OVCAR-8 ovarian
  TGI: > 100 µM
UO-31 renal
  TGI: > 100 µM
NCI-H460 lung
  TGI: > 100 µM
SNB-19 CNS
  TGI: 77.5 µM
NCI-H226 lung
  TGI: 54.4 µM

## COc1cc2c(c(OC)c1OC)-c1ccc(SC)c(=O)cc1[C@@H](NCc1ccc(C#N)cc1)CC2
OVCAR-5 ovarian
  GI50: 3.15 µM
  TGI: > 100 µM
SW-620 colon
  TGI: > 100 µM
SNB-75 CNS
  TGI: > 100 µM
SK-MEL-5 melanoma
  TGI: 15.6 µM
MALME-3M melanoma
  TGI: > 100 µM
LXFL 529 NSCLC
  TGI: > 100 µM
HCT-116 colon
  TGI: 0.0215 µM
HL-60(TB) leukemia
  TGI: 0.0089 µM
CAKI-1 renal
  TGI: > 100 µM
RPMI-8226 leukemia
  TGI: > 100 µM
RXF 393 renal
  TGI: 0.00508 µM
A549 NSCLC
  TGI: 28.6 µM
OVCAR-3 ovarian
  TGI: 0.0129 µM
OVCAR-4 ovarian
  TGI: > 100 µM
M19-MEL melanoma
  TGI: > 100 µM
KM20L2 colon
  TGI: 0.00388 µM
U251 CNS
  TGI: 0.00787 µM
MOLT-4 leukemia
  TGI: > 100 µM
HCC-2998 colon
  TGI: 0.00662 µM
TK-10 renal
  TGI: > 100 µM
786-0 renal
  TGI: 48.9 µM
HOP-62 NSCLC
  TGI: > 100 µM
K-562 leukemia
  TGI: > 100 µM
LOX IMVI melanoma
  TGI: 55.1 µM
HOP-92 NSCLC
  TGI: > 100 µM
NCI-H23 lung
  TGI: 0.00885 µM
SR leukemia
  TGI: 18.5 µM
COLO 205 colon
  TGI: 0.0128 µM
NCI-H522 lung
  TGI: 0.0081 µM
IGROV1 ovarian
  TGI: > 100 µM
ACHN renal
  TGI: > 100 µM
SNB-78 CNS
  TGI: > 100 µM
DMS 114 small cell lung
  TGI: 0.00534 µM
SF-539 CNS
  TGI: 0.00582 µM
SN12C renal
  TGI: > 100 µM
UO-31 renal
  TGI: > 100 µM
SNB-19 CNS
  TGI: > 100 µM
NCI-H226 lung
  TGI: 0.00977 µM
HCT-15 colon
  TGI: 0.0463 µM
EKVX NSCLC
  TGI: > 100 µM
